Experimental data from PubChem BioAssay AID2060602 (Molecular Pharmacology Branch, DTP, NCI, 2025).

Test system: 648629-189-R-J1-PDC complex spheroids viability
Assay: Anticancer human tumor 648629-189-R-J1-PDC patient-derived bladder carcinoma cell line growth inhibition [CLK]
Details: for IC50: curve of first compound; for viability, T/C: stronger effect = lower value
Description: A high-throughput screen of multi-cell type tumor spheroids was designed to identify active combinations of […] and targeted small molecules. Complex spheroids include a stromal component modeled by human endothelial cells (HUVEC) and fibroblasts modeled by human mesenchymal stem cells (MSCs). The concentration ranges selected for each drug and investigational agent were based upon clinically achievable concentrations if the clinical Cmax of the agent was known.
Compounds. The drugs and investigational agents: cirtuvivint (SM08502; NSC835563), CC-671 (NSC850746), vemurafenib (NSC761431), tapotoclax (NSC804041), sotorasib (NSC818433), adagrasib (NSC831453), MRTX-1133 (NSC836407), BAY2416964 (NSC825713), copanlisib (NSC816437), inavolisib (NSC800729), abemaciclib (NSC768073), osimertinib (NSC779217), entinostat (NSC756642), eltanexor (KPT-8602, NSC794443), venetoclax (NSC766270), ceralasertib (NSC777638), bortezomib (NSC756655), olaparib (NSC753686), talazoparib (NSC767125), alisertib (NSC759677), peposertib (NSC802822), gemcitabine (NSC613327), 5-fluorouracil (NSC19893), SN-38 (NSC673596), oxaliplatin (NSC266046), paclitaxel (NSC125973), and doxorubicin (NSC123127), were obtained from the National Cancer Institute (NCI) Developmental Therapeutics Program Chemical Repository. The FDA-approved anticancer drug set is available from the Developmental Therapeutics Program at https://dtp.cancer.gov/organization/dscb/obtaining/available plates.htm. […] The stock solutions were prepared in dimethyl sulfoxide (DMSO, Sigma-Aldrich, St. Louis, MO, cat. D2650), except for the platinum complexes which were prepared in saline (Quality Biological, Gaithersburg, MD, cat. 114-055-101), at 800-fold the tested concentration and stored at -70 degrees C prior to their use. All drugs and investigational agents were tested over a range starting from a high concentration at or near the clinical Cmax and decreasing in half-log increments. If the clinical Cmax for an agent had not been determined, the highest concentration tested was 10 microM.
Cell Culture. All cells were maintained in an incubator at 37 degrees C and 5% CO2 with 95% humidity. The PDC lines were cultured according to standard operating procedures established by the NCI PDMR. Briefly, all PDCs were thawed and cultured in Matrigel-coated flasks prepared with a working solution of 1X Ham's F-12 nutrient mix, without supplementation (Invitrogen, Waltham, MA, cat. 11765054), 100 U/mL penicillin-streptomycin (Invitrogen, cat. 15140122), and 2.5% Matrigel (Corning Inc., Corning, NY, cat. 354248) for the first three passages. The 947758-054-R-J2-PDC line was cultured in 6B/Colon 1A media, which includes advanced DMEM/F-12 (Thermo Fisher Scientific, cat. 12634028), 10 mM HEPES (Thermo Fisher Scientific, cat. 15630080), 1X GlutaMAX supplement (Thermo Fisher Scientific, cat. 35050061), 0.1 mg/mL primocin (InvivoGen, cat. ant-pm-2), 10% defined fetal bovine serum, heat inactivated (HyClone Laboratories Inc., cat. SH30070.03HI), 1.25 mM N-Acetyl-L-cysteine (Sigma-Aldrich, cat. A9165), 10 mM nicotinamide (Sigma-Aldrich, cat. N0636), 1X B-27 supplement (Thermo Fisher Scientific, cat. 17504044), 1X N-2 supplement (Thermo Fisher Scientific, cat. 17502048), and 10 microM Y-27632 dihydrochloride (Tocris Bioscience, cat. 1254). The 876862-298-R-J1-PDC was cultured in 6E media, which includes all 6B/Colon 1A media components plus 50% L-WRN conditioned media (ATCC, cat. CRL-3276), 50 ng/mL recombinant human EGF recombinant protein (hEGF; Thermo Fisher Scientific, cat. PHG0311), 10 ng/mL recombinant human fibroblast growth factor 10 (hGFG-10; PeproTech, cat. 100-26), 1 ng/mL recombinant human fibroblast growth factor 2 (hFGF-2; PeproTech, cat. 100-18B), and 1 µM prostaglandin E2 (PGE2; Tocris, cat. 2296). The 227483-062-R1-J1-PDC line was cultured in Panc media, containing all 6E components except hFGF-2, with the addition of 500 nM SB-431542 (Selleckchem, cat. S1067) and 10 nM gastrin (Tocris, cat. 3006). […]

[1] = second compound 0.0316 µM, first compound 0.0316 µM
[2] = second compound 0.0316 µM, first compound 0.1 µM
[3] = second compound 0.0316 µM, first compound 0.316 µM
[4] = second compound 0.0316 µM, first compound 1 µM
[5] = second compound 0.0316 µM, first compound 3.16 µM
[6] = second compound 0.0316 µM, first compound 10 µM
[7] = second compound 0.1 µM, first compound 0.0316 µM
[8] = second compound 0.1 µM, first compound 0.1 µM
[9] = second compound 0.1 µM, first compound 0.316 µM
[10] = second compound 0.1 µM, first compound 1 µM
[11] = second compound 0.1 µM, first compound 3.16 µM
[12] = second compound 0.1 µM, first compound 10 µM
[13] = second compound 0.316 µM, first compound 0.0316 µM
[14] = second compound 0.316 µM, first compound 0.1 µM
[15] = second compound 0.316 µM, first compound 0.316 µM
[16] = second compound 0.316 µM, first compound 1 µM
[17] = second compound 0.316 µM, first compound 3.16 µM
[18] = second compound 0.316 µM, first compound 10 µM
[19] = second compound 1 µM, first compound 0.0316 µM
[20] = second compound 1 µM, first compound 0.1 µM
[21] = second compound 1 µM, first compound 0.316 µM
[22] = second compound 1 µM, first compound 1 µM
[23] = second compound 1 µM, first compound 3.16 µM
[24] = second compound 1 µM, first compound 10 µM
[25] = second compound 3.16 µM, first compound 0.0316 µM
[26] = second compound 3.16 µM, first compound 0.1 µM
[27] = second compound 3.16 µM, first compound 0.316 µM
[28] = second compound 3.16 µM, first compound 1 µM
[29] = second compound 3.16 µM, first compound 3.16 µM
[30] = second compound 3.16 µM, first compound 10 µM
[31] = second compound 10 µM, first compound 0.0316 µM
[32] = second compound 10 µM, first compound 0.1 µM
[33] = second compound 10 µM, first compound 0.316 µM
[34] = second compound 10 µM, first compound 1 µM
[35] = second compound 10 µM, first compound 3.16 µM
[36] = second compound 10 µM, first compound 10 µM
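Wherever viability, T/C is given: drug exposure lasted seven days before viability readout; 100% = DMSO vehicle control wells.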

CCCS(=O)(=O)Nc1ccc(F)c(C(=O)c2c[nH]c3ncc(-c4ccc(Cl)cc4)cc23)c1F + CN1CCN(c2cc(C(=O)Nc3cc4cc(-c5cnn(C)c5)ccc4cn3)ccn2)CC1
IC50 (second compound 0.0316 µM): 7050 nM
IC50 (second compound 0.1 µM): 7250 nM
IC50 (second compound 0.316 µM): < 31.6 nM
IC50 (second compound 1 µM): < 31.6 nM
IC50 (second compound 3.16 µM): < 31.6 nM
IC50 (second compound 10 µM): < 31.6 nM
viability, T/C [1]: 115%
viability, T/C [2]: 104%
viability, T/C [3]: 116%
viability, T/C [4]: 110%
viability, T/C [5]: 126%
viability, T/C [6]: 21.8%
viability, T/C [7]: 110%
viability, T/C [8]: 118%
viability, T/C [9]: 105%
viability, T/C [10]: 98.7%
viability, T/C [11]: 104%
viability, T/C [12]: 28.9%
viability, T/C [13]: 37.6%
viability, T/C [14]: 57.9%
viability, T/C [15]: 55.4%
viability, T/C [16]: 46.8%
viability, T/C [17]: 44.1%
viability, T/C [18]: 7.7%
viability, T/C [19]: 0.47%
viability, T/C [20]: 0.46%
viability, T/C [21]: 0.3%
viability, T/C [22]: 0.39%
viability, T/C [23]: 0.22%
viability, T/C [24]: 0.86%
viability, T/C [25]: 0.11%
viability, T/C [26]: 0.67%
viability, T/C [27]: 0.13%
viability, T/C [28]: 0.13%
viability, T/C [29]: 0.14%
viability, T/C [30]: 0.52%
viability, T/C [31]: 0.11%
viability, T/C [32]: 0.13%
viability, T/C [33]: 0.14%
viability, T/C [34]: 0.16%
viability, T/C [35]: 0.15%
viability, T/C [36]: 0.25%

COC1C=CCC(C)C(C)S(=O)(=O)NC(=O)c2ccc3c(c2)N(CC2CCC21)CC1(CCCc2cc(Cl)ccc21)CO3 (centres undefined) + CN1CCN(c2cc(C(=O)Nc3cc4cc(-c5cnn(C)c5)ccc4cn3)ccn2)CC1
IC50 (second compound 0.0316 µM): 2090 nM
IC50 (second compound 0.1 µM): 2100 nM
IC50 (second compound 0.316 µM): < 31.6 nM
IC50 (second compound 1 µM): < 31.6 nM
IC50 (second compound 3.16 µM): < 31.6 nM
IC50 (second compound 10 µM): < 31.6 nM
viability, T/C [1]: 106%
viability, T/C [2]: 99.9%
viability, T/C [3]: 93.2%
viability, T/C [4]: 82%
viability, T/C [5]: 32.4%
viability, T/C [6]: 3.21%
viability, T/C [7]: 114%
viability, T/C [8]: 94.4%
viability, T/C [9]: 92.4%
viability, T/C [10]: 80.1%
viability, T/C [11]: 33.3%
viability, T/C [12]: 3.02%
viability, T/C [13]: 50.2%
viability, T/C [14]: 46.9%
viability, T/C [15]: 37.9%
viability, T/C [16]: 14.4%
viability, T/C [17]: 4.72%
viability, T/C [18]: 1.78%
viability, T/C [19]: 0.38%
viability, T/C [20]: 0.34%
viability, T/C [21]: 0.42%
viability, T/C [22]: 0.15%
viability, T/C [23]: 0.13%
viability, T/C [24]: 0.08%
viability, T/C [25]: 0.13%
viability, T/C [26]: 0.12%
viability, T/C [27]: 0.16%
viability, T/C [28]: 0.14%
viability, T/C [29]: 0.43%
viability, T/C [30]: 0.12%
viability, T/C [31]: 0.17%
viability, T/C [32]: 0.13%
viability, T/C [33]: 0.2%
viability, T/C [34]: 0.21%
viability, T/C [35]: 0.24%
viability, T/C [36]: 0.51%
